The source of these data is patent US9265845B2, “Imaging methods using engineered integrin binding peptides” (The Board of Trustees of the Leland Stanford Junior …, priority 2006, dated 2016).

One assay concerns U87MG glioblastoma cells. Briefly: Direct equilibrium binding titration on U87MG glioblastoma cells. The settings on record: for Kd: recombinant peptides with FLAG and His tags, 3 h at 4° C. As to the method:
Direct equilibrium binding titrations of the recombinant engineered AgRP peptides were performed on U87MG glioblastoma cells. Peptides were incubated with cells for 3 h at 4° C., followed by staining with a fluorescein-conjugated anti-His antibody and analysis by flow cytometry. Equilibrium binding constant (KD) values were obtained by fitting plots of concentration versus mean fluorescence intensity to a sigmoidal curve using KaleidaGraph software.
(§1) All cell lines were cultured at 37° C. with 5% CO2. Adherent U87MG cells were obtained from ATCC and cultured in DMEM media (Gibco 11995) supplemented with 10% fetal bovine serum. Untransfected K562 cells (α5 β1-positive) were obtained from ATCC and cultured in suspension in IMDM media (Gibco 12440) supplemented with 10% fetal bovine serum. K562 cells stably transfected with αv β3, αv β5, or αiib β3 integrins were obtained from S. Blystone (Blystone, S. D., Graham, I. L., Lindberg, F. P. & Brown, E. J. (1994). Integrin avb3 differentially regulates adhesive and phagocytic functions of the fibronectin receptor a5b1. J. Cell Biol. 127, 1129-1137) and were grown in media supplemented with 10 μg/mL geneticin. Equilibrium binding assays were performed with 10^5 cells per reaction. Cells were suspended in IBB with varying amounts of engineered AgRP peptide at 4° C. for 3 h with gentle rocking. The cells were washed and resuspended in BPBS with a 1:40 dilution of fluorescein-conjugated anti-6×-His antibody (Bethyl A190-113F) and incubated on ice for 20 min. After washing, the cells were analyzed by flow cytometry using a BD FACSCalibur instrument and CellQuest software (Becton Dickinson, Franklin Lakes, N.J.). Mean fluorescence intensity values for each cell population was plotted against concentration on a log scale. Data was fit to sigmoidal curves to obtain equilibrium dissociation constants using KaleidaGraph (Synergy Software), and is presented as average values with standard deviations. Each assay was performed a minimum of three times.

The subject of another assay is K562-αvβ3 cells. Briefly: Equilibrium binding to K562 cells expressing αvβ3 integrin. The following applies: recombinant peptides with FLAG and His tags. As to the method: To determine the binding specificities of the AgRP peptides for αvβ3 integrin versus the αvβ5 and α5β1 integrins also expressed on U87MG cells, K562 leukemia cells that had been stably transfected with individual α and β integrin subunits were used. The engineered AgRP peptides were tested for binding to untransfected K562 cells, which intrinsically express α5β1 integrin. Equilibrium binding assays were performed on the untransfected K562 cells as described above for the U87MG cells. Three peptide concentrations were tested. Negligible signal over background levels (cells stained with fluorescein-conjugated anti-His antibody alone) even at 500 nM, the highest concentration tested, was observed.
The engineered AgRP peptides were tested for binding to K562 cells expressing αvβ5 αiiiβ3 or αvβ3 integrins. The peptides were tested at three concentrations with very little signal over background for cells expressing αvβ5 integrin, even at 500 nM, the highest concentration. The peptides bound weakly to the K562 cells expressing αiiβ3 integrins and, as expected, strongly to the K562 cells expressing αvβ3 integrins. In order to determine KD values for the engineered AgRP peptides against K562-αiiβ3 and K562-αvβ3 cells, binding titrations were done over a larger range of concentrations. […] KD values for peptide binding to K562-αiibβ3 cells could not be determined because binding was still increasing at the highest concentration (5 μM) of peptides tested.
as §1, with “Data was fit to sigmoidal curves to obtain equilibrium dissociation constants using KaleidaGraph (Synergy Software), and is presented as average values with standard deviations. Each assay was performed a minimum of three times.” left out

The target of another assay is α5β1 integrin (Homo sapiens, UniProt P05556+P08648). Briefly: Competition of 125I-echistatin to detergent-solubilized plate-coated integrin. Type of assay: binding. The following applies: 0.06 nM 125I echistatin, 5 nM and 50 nM peptide. As to the method: (§2) FIG. 10A through FIG. 10D is a series of histograms showing binding specificities to integrins αvβ3, αvβ5, α5β1, and αiibβ3 for engineered EETI-RGD peptides compared to controls. Error bars represent experiments performed in triplicate. Competition binding of 0.06 nM ^125I echistatin with 5 nM (black bars) and 50 nM (grey bars) unlabeled peptide to plate-coated integrins was measured. […] The engineered peptides have very little binding to αiibβ3 integrin.
(§3) This was done by competition of ^125I-echistatin to detergent-solubilized integrin receptors coated onto microtiter plates (see FIG. 10). […] This is consistent with previous studies which have shown αv integrin receptors can accommodate a wide range of RGD-containing cyclic structures. […] However, since α5β1 integrins are expressed on many tumors and are all involved in mediating angiogenesis and metastasis, a broad spectrum agent that targets all three integrins will be useful for diagnostic and therapeutic applications. With the exception of echistatin, all of the RGD-containing peptides bound weakly to the αiibβ3 receptor, showing the specificity of the present peptides for the αv and α5-containing integrin heterodimers. This characteristic is valuable for molecular imaging and therapeutic applications, since binding to αiibβ3 on platelet cells prevents blood clotting and would lead to non-specific in vivo effects.

The target of another assay is αiibβ3 integrin (Homo sapiens, UniProt P05106+P08514). The assay is described as above. Format: binding. The settings on record: 0.06 nM 125I echistatin, 5 nM and 50 nM peptide. As to the method: as §2, §3
Another assay has as its target αvβ3 integrin (Homo sapiens, UniProt P05106+P06756). Described as above. Type of assay: binding. The following applies: 0.06 nM 125I echistatin, 5 nM and 50 nM peptide. As to the method: as §2, §3
The next assay addresses αvβ5 integrin (Homo sapiens, UniProt P06756+P18084). The description is as above. Format: binding. The settings on record: 0.06 nM 125I echistatin, 5 nM and 50 nM peptide. As to the method:
as §2, §3

Positions of bridges follow the written chain, without caps; N, C: chain ends. Residues, ends and D or L forms follow the SMILES beside them. No end group written: not given here.

α5β1 integrin, sequence (P08648 42-894 limits assumed): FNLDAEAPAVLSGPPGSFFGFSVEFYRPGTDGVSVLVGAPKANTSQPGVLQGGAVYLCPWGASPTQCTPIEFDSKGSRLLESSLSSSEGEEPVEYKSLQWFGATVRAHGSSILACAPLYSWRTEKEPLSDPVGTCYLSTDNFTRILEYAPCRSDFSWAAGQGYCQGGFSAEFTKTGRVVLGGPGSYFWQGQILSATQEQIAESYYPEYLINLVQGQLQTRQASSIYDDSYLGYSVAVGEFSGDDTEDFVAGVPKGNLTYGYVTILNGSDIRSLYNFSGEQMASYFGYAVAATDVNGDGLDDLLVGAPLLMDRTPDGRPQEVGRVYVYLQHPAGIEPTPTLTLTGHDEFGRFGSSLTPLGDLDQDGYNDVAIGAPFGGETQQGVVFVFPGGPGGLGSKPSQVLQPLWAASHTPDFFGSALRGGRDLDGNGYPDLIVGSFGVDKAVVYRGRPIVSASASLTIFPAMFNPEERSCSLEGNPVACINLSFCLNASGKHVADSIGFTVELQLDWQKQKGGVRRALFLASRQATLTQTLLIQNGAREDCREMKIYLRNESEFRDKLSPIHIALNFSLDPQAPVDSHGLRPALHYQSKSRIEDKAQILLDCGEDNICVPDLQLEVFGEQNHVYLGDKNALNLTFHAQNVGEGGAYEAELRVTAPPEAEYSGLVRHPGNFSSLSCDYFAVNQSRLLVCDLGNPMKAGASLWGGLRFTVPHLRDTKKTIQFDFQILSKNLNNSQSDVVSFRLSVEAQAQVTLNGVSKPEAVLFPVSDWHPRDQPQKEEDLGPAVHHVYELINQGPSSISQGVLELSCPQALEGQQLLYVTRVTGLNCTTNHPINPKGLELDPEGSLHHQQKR
α5β1 integrin, sequence (P08648 895-1049 partner limits assumed): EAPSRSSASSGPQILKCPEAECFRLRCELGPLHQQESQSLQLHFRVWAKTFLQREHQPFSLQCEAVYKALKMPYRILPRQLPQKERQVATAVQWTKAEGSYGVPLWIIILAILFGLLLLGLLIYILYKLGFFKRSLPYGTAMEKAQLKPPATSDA
α5β1 integrin, sequence (P05556 21-798): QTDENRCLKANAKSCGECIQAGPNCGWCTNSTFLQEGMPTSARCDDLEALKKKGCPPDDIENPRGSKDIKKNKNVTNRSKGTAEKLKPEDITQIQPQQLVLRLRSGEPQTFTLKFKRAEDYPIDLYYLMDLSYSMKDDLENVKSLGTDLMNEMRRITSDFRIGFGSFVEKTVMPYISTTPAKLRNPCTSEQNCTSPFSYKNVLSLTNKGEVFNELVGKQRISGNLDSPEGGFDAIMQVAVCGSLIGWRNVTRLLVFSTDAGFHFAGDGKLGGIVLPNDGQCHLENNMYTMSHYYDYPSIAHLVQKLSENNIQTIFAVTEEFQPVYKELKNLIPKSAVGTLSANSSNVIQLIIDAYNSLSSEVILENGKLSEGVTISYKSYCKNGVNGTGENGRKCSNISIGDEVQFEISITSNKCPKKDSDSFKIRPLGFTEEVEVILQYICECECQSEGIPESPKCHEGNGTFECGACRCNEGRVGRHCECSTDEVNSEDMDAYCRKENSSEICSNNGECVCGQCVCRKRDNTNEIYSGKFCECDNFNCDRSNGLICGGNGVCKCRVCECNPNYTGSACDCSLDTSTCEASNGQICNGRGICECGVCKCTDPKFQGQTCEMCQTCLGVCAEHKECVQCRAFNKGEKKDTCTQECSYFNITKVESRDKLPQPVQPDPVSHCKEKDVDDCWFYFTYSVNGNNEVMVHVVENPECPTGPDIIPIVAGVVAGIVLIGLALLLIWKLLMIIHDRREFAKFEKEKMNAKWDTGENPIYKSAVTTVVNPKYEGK
αvβ3 integrin, sequence (P06756 31-889 limits assumed): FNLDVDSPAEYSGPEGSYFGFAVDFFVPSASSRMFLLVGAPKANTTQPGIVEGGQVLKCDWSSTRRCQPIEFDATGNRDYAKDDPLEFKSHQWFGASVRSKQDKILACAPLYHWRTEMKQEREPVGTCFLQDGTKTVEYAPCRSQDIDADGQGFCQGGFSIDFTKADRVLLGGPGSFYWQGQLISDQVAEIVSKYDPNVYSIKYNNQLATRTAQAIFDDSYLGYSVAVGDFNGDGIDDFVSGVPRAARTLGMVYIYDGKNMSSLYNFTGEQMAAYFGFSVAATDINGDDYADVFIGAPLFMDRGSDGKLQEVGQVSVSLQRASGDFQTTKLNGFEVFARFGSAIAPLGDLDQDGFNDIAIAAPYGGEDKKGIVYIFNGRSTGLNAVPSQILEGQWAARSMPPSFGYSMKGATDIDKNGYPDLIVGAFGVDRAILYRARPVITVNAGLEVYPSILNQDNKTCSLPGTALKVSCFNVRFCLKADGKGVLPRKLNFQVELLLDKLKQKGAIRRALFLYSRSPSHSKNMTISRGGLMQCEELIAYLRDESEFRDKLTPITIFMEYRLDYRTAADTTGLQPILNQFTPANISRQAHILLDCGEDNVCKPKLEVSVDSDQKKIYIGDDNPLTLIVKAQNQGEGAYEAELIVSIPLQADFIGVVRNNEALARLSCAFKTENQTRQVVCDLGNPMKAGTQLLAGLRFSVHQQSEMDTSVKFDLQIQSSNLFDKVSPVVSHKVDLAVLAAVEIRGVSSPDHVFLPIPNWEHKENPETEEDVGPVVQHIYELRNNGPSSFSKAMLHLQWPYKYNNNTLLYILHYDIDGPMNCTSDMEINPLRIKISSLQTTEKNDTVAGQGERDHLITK
αvβ3 integrin, sequence (P06756 891-1048 partner limits assumed): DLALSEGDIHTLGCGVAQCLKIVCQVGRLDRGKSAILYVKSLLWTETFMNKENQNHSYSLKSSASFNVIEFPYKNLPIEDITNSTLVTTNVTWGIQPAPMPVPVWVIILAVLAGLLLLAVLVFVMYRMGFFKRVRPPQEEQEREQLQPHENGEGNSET
αvβ3 integrin, sequence (P05106 27-788): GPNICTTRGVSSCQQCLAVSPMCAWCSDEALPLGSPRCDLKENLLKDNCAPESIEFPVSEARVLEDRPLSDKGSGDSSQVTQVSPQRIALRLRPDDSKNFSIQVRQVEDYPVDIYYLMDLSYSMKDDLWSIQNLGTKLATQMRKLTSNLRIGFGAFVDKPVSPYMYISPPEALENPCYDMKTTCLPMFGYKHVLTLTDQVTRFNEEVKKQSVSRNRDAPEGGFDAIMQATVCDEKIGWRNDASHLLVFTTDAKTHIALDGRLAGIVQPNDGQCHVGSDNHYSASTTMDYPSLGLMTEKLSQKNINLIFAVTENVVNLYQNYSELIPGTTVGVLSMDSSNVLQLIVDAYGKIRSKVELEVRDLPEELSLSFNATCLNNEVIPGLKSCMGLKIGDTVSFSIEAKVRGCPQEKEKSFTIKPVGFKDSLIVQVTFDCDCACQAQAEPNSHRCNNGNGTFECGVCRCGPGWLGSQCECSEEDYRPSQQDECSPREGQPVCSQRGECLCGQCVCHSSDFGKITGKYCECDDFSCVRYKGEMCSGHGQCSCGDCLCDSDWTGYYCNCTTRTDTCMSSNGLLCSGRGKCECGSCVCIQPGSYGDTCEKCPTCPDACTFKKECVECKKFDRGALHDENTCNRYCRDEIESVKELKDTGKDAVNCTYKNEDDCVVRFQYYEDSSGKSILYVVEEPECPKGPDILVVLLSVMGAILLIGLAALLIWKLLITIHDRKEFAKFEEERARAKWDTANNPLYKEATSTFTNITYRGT
αvβ5 integrin, sequence (P06756 31-889 limits assumed): as the sequence (P06756 31-889 limits assumed) above
αvβ5 integrin, sequence (P06756 891-1048 partner limits assumed): as the sequence (P06756 891-1048 partner limits assumed) above
αvβ5 integrin, sequence (P18084 24-799): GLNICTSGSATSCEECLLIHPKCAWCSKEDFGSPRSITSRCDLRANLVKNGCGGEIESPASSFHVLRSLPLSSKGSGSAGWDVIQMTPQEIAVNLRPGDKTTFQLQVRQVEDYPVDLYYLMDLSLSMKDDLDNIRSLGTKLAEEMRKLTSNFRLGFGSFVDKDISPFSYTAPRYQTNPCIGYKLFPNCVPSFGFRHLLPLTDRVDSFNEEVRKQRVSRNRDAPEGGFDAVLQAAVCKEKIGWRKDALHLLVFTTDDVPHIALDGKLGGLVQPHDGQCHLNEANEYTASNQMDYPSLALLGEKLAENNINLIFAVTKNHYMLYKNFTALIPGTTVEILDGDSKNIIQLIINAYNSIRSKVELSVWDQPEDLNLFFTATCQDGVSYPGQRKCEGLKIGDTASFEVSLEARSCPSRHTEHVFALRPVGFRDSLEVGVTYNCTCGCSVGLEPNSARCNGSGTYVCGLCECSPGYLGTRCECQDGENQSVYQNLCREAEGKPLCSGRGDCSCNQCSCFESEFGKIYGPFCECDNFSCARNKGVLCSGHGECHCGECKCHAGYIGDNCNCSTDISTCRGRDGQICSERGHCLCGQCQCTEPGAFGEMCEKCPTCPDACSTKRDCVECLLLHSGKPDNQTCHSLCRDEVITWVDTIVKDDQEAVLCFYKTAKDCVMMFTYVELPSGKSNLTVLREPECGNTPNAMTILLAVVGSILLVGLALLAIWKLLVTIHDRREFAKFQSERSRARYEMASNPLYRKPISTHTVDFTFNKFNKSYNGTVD

As to `CC(C)C[C@@H]1NC(=O)[C@@H]2CSSC[C@@H]3NC(=O)[C@H]([C@@H](C)O)NC(=O)[C@H](C)NC(=O)[C@H](C)NC(=O)[C@@H]4CCCN4C(=O)[C@H](CC(=O)O)NC(=O)[C@H](CSSC[C@H](NC(=O)CN)C(=O)N[C@@H](C(C)C)C(=O)N[C@@H](CCCNC(=N)N)C(=O)N[C@@H](CC(C)C)C(=O)N[C@@H](Cc4c[nH]cn4)C(=O)N[C@@H](CCC(=O)O)C(=O)N[C@@H](CO)C(=O)N2)NC(=O)[C@H](CSSC[C@@H](C(=O)N[C@@H](CCCNC(=N)N)C(=O)O)NC(=O)[C@H](Cc2ccc(O)cc2)NC(=O)[C@@H]2CSSC[C@H](NC(=O)[C@H](Cc4ccc(O)cc4)NC3=O)C(=O)N[C@@H]([C@@H](C)O)C(=O)NCC(=O)N[C@@H](CCCNC(=N)N)C(=O)NCC(=O)N[C@@H](CC(=O)O)C(=O)N[C@@H](CCC(=O)O)C(=O)N[C@@H](CCCCN)C(=O)N[C@@H](CC(C)C)C(=O)N[C@@H](CCCNC(=N)N)C(=O)N2)NC(=O)[C@@H]2CCCN2C(=O)[C@H](C(C)C)NC(=O)[C@H](CCC(N)=O)NC(=O)[C@H](CCC(N)=O)NC(=O)CNC1=O` [6C] (H-GCVRLHESCLGQQVPCCDPAATCYCTGRGDEKLRCYCR-OH; disulfide 2-17, 9-23, 16-37, 25-35; N-terminus and C-terminus assumed), the Kd in the assay with U87MG glioblastoma cells stood at 13 ± 2 nM; in the assay on K562-αvβ3 cells, 15 ± 4 nM.

For `CC(C)C[C@@H]1NC(=O)[C@@H]2CSSC[C@@H]3NC(=O)[C@H]([C@@H](C)O)NC(=O)[C@H](C)NC(=O)[C@H](C)NC(=O)[C@@H]4CCCN4C(=O)[C@H](CC(=O)O)NC(=O)[C@H](CSSC[C@H](NC(=O)CN)C(=O)N[C@@H](C(C)C)C(=O)N[C@@H](CCCNC(=N)N)C(=O)N[C@@H](CC(C)C)C(=O)N[C@@H](Cc4c[nH]cn4)C(=O)N[C@@H](CCC(=O)O)C(=O)N[C@@H](CO)C(=O)N2)NC(=O)[C@H](CSSC[C@@H](C(=O)N[C@@H](CCCNC(=N)N)C(=O)O)NC(=O)[C@H](Cc2ccc(O)cc2)NC(=O)[C@@H]2CSSC[C@H](NC(=O)[C@H](Cc4ccc(O)cc4)NC3=O)C(=O)N[C@@H](CO)C(=O)NCC(=O)N[C@@H](CCCNC(=N)N)C(=O)NCC(=O)N[C@@H](CC(=O)O)C(=O)N[C@@H](CC(N)=O)C(=O)N[C@@H](CC(=O)O)C(=O)N[C@@H](CC(C)C)C(=O)N[C@@H](C(C)C)C(=O)N2)NC(=O)[C@@H]2CCCN2C(=O)[C@H](C(C)C)NC(=O)[C@H](CCC(N)=O)NC(=O)[C@H](CCC(N)=O)NC(=O)CNC1=O` [7A] (H-GCVRLHESCLGQQVPCCDPAATCYCSGRGDNDLVCYCR-OH; disulfide 2-17, 9-23, 16-37, 25-35; N-terminus and C-terminus assumed), in the assay with U87MG glioblastoma cells, the “fold improvement in affinity over the worst binder, 6C” value was determined as 17 fold and the Kd turned out to be 0.78 ± 0.37 nM. Also, the Kd in the assay on K562-αvβ3 cells amounted to 0.89 ± 0.36 nM.

As to `CC(C)C[C@@H]1NC(=O)[C@@H]2CSSC[C@@H]3NC(=O)[C@H]([C@@H](C)O)NC(=O)[C@H](C)NC(=O)[C@H](C)NC(=O)[C@@H]4CCCN4C(=O)[C@H](CC(=O)O)NC(=O)[C@H](CSSC[C@H](NC(=O)CN)C(=O)N[C@@H](C(C)C)C(=O)N[C@@H](CCCNC(=N)N)C(=O)N[C@@H](CC(C)C)C(=O)N[C@@H](Cc4c[nH]cn4)C(=O)N[C@@H](CCC(=O)O)C(=O)N[C@@H](CO)C(=O)N2)NC(=O)[C@H](CSSC[C@@H](C(=O)N[C@@H](CCCNC(=N)N)C(=O)O)NC(=O)[C@H](Cc2ccc(O)cc2)NC(=O)[C@@H]2CSSC[C@H](NC(=O)[C@H](Cc4ccc(O)cc4)NC3=O)C(=O)N[C@@H](C(C)C)C(=O)NCC(=O)N[C@@H](CCCNC(=N)N)C(=O)NCC(=O)N[C@@H](CC(=O)O)C(=O)N[C@@H](CC(=O)O)C(=O)N[C@@H](CC(N)=O)C(=O)N[C@@H](CC(C)C)C(=O)N[C@@H](CCCCN)C(=O)N2)NC(=O)[C@@H]2CCCN2C(=O)[C@H](C(C)C)NC(=O)[C@H](CCC(N)=O)NC(=O)[C@H](CCC(N)=O)NC(=O)CNC1=O` [7E] (H-GCVRLHESCLGQQVPCCDPAATCYCVGRGDDNLKCYCR-OH; disulfide 2-17, 9-23, 16-37, 25-35; N-terminus and C-terminus assumed), the equilibrium dissociation constant (Kd) in the assay on U87MG glioblastoma cells stood at 1.4 ± 0.5 nM; with K562-αvβ3 cells it was 1.6 ± 1.1 nM.

With `CSCC[C@@H]1NC(=O)[C@H](CC(=O)O)NC(=O)[C@H](CCCNC(=N)N)NC(=O)[C@H](CC(=O)O)NC(=O)CNC(=O)[C@H](CCCNC(=N)N)NC(=O)CNC(=O)[C@H](CCC(=O)O)NC(=O)[C@@H]2CSSC[C@H](NC(=O)[C@H](CCCCN)NC1=O)C(=O)N[C@@H](Cc1ccc(O)cc1)C(=O)N[C@H](C(=O)N[C@@H](CCCNC(=N)N)C(=O)O)CSSC[C@@H]1NC(=O)[C@@H]3CCCN3C(=O)[C@H](C(C)C)NC(=O)[C@H](CCC(N)=O)NC(=O)[C@H](CCC(N)=O)NC(=O)CNC(=O)[C@H](CC(C)C)NC(=O)[C@@H]3CSSC[C@H](NC(=O)[C@H]([C@@H](C)O)NC(=O)[C@H](C)NC(=O)[C@H](C)NC(=O)[C@@H]4CCCN4C(=O)[C@H](CC(=O)O)NC(=O)[C@H](CSSC[C@H](NC(=O)CN)C(=O)N[C@@H](C(C)C)C(=O)N[C@@H](CCCNC(=N)N)C(=O)N[C@@H](CC(C)C)C(=O)N[C@@H](Cc4c[nH]cn4)C(=O)N[C@@H](CCC(=O)O)C(=O)N[C@@H](CO)C(=O)N3)NC1=O)C(=O)N[C@@H](Cc1ccc(O)cc1)C(=O)N2` [7J] (H-GCVRLHESCLGQQVPCCDPAATCYCEGRGDRDMKCYCR-OH; disulfide 2-17, 9-23, 16-37, 25-35; N-terminus and C-terminus assumed), the Kd turned out to be 8.3 ± 1.8 nM with U87MG glioblastoma cells and 16 ± 8 nM in the assay on K562-αvβ3 cells.

With “DOTA-conjugated FN-RDG2: DOTA conjugate of negative control with RGD switched to RDG (GCVTGRDGSPASSCSQDSDCLAGCVCGPNGFCG; cysteine pairing not given here; also: DOTA conjugate, position not given here)”, the “binding to α5β1 integrin, in words” value in the assay with α5β1 integrin was “did not bind”. The “binding to αiibβ3 integrin, in words” value with αiibβ3 integrin was “did not bind”. Besides, in the assay with αvβ3 integrin, the “binding to αvβ3 integrin, in words” value is “did not bind”. For the same compound, the “binding to αvβ5 integrin, in words” value with αvβ5 integrin is recorded as “did not bind”.

As usually defined, the Kd is the concentration at which binding is half-saturated.
